System: ICR strain mice
Details: mouse, in vivo, po, 300 mg/kg
Method: Six male ICR strain mice weighing 20 g for each group were administered orally with 300 mg/kg of the test drug (all the test drugs were used in the form of the suspension in 0.5% CMC). Two hours after administration, 5 mm of the tail from the top was cut under pentobarbital anesthesia, and the bleeding was observed by tapping at the cutting site with a filter paper every 15 seconds. The time when the bleeding was observed stopping for one minute is defined as the arrest point of bleeding, and the duration required from the time when the cutting was done to the arrest point of bleeding is defined as the bleeding time. The observation was carried out up to 1200 seconds. Ticlopidine was used as a positive control.

Bleeding time ± standard error	Structure (SMILES)
417.5 ± 171.22 s	CC(C=C1C(=O)N(c2ccccc2)C1c1ccccc1)=NOCC(=O)O (centres unmarked) [Compound 1, 3-(2-carboxymethoxyiminopropylidene)-1,4-diphenyl-2-azetidinone]
1127.5 ± 72.50 (note) seconds	Clc1ccccc1CN1CCc2sccc2C1 [ticlopidine]

Source: EP0264232A1, “2-Azetidinone derivatives” (TAISHO PHARMACEUTICAL CO. LTD, priority 1986, dated 1988)
